Results on one molecule are retold here after article PMC10485095, “Structure and enzymatic characterization of CelD endoglucanase from the anaerobic fungus Piromyces finnis” (Applied Microbiology and Biotechnology, 2023).

The test deals with T1, CelD GH5 catalytic domain (construct 91–452) (Piromyces finnis, UniProt A0A1Y1V643).
T1 construct: gene BCR36DRAFT_398243; third GH5 catalytic domain of 136 kDa three-GH5, double-dockerin CelD; E. coli BL21-Gold(DE3), pMCSG68; N-terminal His/Strep tag cut by TEV for crystallisation; two molecules per asymmetric unit
Nature of the test: X-ray crystallography, co-crystal, […] Å. To be noted: inactive acid/base mutant; 10 mM cellotriose added; bound at -3, -2, -1 subsites of active site; 0.1 M sodium acetate, 24% PEG 6000, 16 °C. The class given is binding.

T1 sequence (A0A1Y1V643 entry or part of it E900A): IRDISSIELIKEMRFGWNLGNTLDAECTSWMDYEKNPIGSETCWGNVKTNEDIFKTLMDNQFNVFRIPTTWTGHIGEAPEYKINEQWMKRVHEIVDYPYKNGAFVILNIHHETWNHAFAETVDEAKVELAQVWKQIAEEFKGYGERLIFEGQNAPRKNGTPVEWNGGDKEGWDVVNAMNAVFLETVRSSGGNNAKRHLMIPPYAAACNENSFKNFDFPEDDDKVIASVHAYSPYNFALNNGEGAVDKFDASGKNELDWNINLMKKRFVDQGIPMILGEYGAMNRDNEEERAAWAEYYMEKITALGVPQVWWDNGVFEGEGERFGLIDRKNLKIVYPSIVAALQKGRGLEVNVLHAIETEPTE

With `OC[C@H]1O[C@@H](O[C@H]2[C@H](O)[C@@H](O)[C@H](O[C@H]3[C@H](O)[C@@H](O)C(O)O[C@@H]3CO)O[C@@H]2CO)[C@H](O)[C@@H](O)[C@@H]1O` (stereo partly shown) [cellotriose], the “X-ray crystallography, co-crystal, 1.8 Å” value is “The complex between the E154A mutant protein and cellotriose was formed by adding the ligand”.
